Measurements as given in ChEMBL document CHEMBL3044771, “Synthesis, characterization, and in vitro anti-Mycobacterium tuberculosis activity of terpene Schiff bases” (2013).
≈ marks a conversion by molar mass, not a printed value.

Columns and labels:
Assay type in all cases: functional
[1] = tested on: Mycolicibacterium smegmatis; experiment: Antitubercular activity against Mycobacterium smegmatis ATCC 35797 assessed as growth inhibition after 48 hr by NCCLS agar dilution method; conditions: ATCC 35797, 48 h
Mycobacteroides chelonae = experiment: Antitubercular activity against Mycobacterium chelonae ATCC 35751 assessed as growth inhibition after 48 hr by NCCLS agar dilution method; conditions: ATCC 35751, 48 h
Mycobacterium xenopi = experiment: Antitubercular activity against Mycobacterium xenopi ATCC 14470 assessed as growth inhibition after 48 hr by NCCLS agar dilution method; conditions: ATCC 14470, 48 h
[2] = tested on: Mycobacterium intracellulare; experiment: Antitubercular activity against Mycobacterium intracellulare ATCC 35743 assessed as growth inhibition after 48 hr by NCCLS agar dilution method; conditions: ATCC 35743, 48 h

SMILES	MIC [1] [µg/mL]	MIC (Mycobacteroides chelonae) [µg/mL]	MIC (Mycobacterium xenopi) [µg/mL]	MIC [2] [µg/mL]
CC12CCC(C/C1=N/NC(=O)c1ccncc1)C2(C)C (stereo not drawn)	50 (≈ 184 µM)	50 (≈ 184 µM)	50 (≈ 184 µM)	50 (≈ 184 µM)
C=C(C)C1CC=C(C)/C(=N/NC(=O)c2ccncc2)C1 (stereo not drawn)	12 (≈ 44.6 µM)	12 (≈ 44.6 µM)	12 (≈ 44.6 µM)	12 (≈ 44.6 µM)
CCn1cc(C(=O)N/N=C\C=C(/C)CCC=C(C)C)c(=O)c2ccc(C)nc21	> 100	> 100	> 100	> 100
CCn1cc(C(=O)N/N=C2\CC3CCC2(C)C3(C)C)c(=O)c2ccc(C)nc21 (stereo not drawn)	50 (≈ 131 µM)	50 (≈ 131 µM)	50 (≈ 131 µM)	50 (≈ 131 µM)
C=C(C)C1CC=C(C)/C(=N\NC(=O)c2cn(CC)c3nc(C)ccc3c2=O)C1 (stereo not drawn)	> 100	> 100	> 100	> 100
CC(C)=CCC/C(C)=C\C=N/NC(=O)c1ccccc1Nc1cccc(C)c1C	> 100	> 100	> 100	> 100
Cc1cccc(Nc2ccccc2C(=O)N/N=C2\CC3CCC2(C)C3(C)C)c1C (stereo not drawn)	> 100	> 100	> 100	> 100
C=C(C)C1CC=C(C)/C(=N/NC(=O)c2ccccc2Nc2cccc(C)c2C)C1 (stereo not drawn)	> 100	> 100	> 100	> 100
CC12CCC(C/C1=N\NC(=O)c1ccccc1Nc1cccc(C(F)(F)F)c1)C2(C)C (stereo not drawn)	> 100	> 100	> 100	> 100
C=C(C)C1CC=C(C)/C(=N/NC(=O)c2ccccc2Nc2cccc(C(F)(F)F)c2)C1 (stereo not drawn)	> 100	> 100	> 100	> 100
CC(C)=CCC/C(C)=C/C=N/NC(=O)c1ccncc1	> 100	> 100	> 100	> 100
NNC(=O)c1ccncc1 [ISONIAZID]	12.5 (≈ 91.1 µM)	12.5 (≈ 91.1 µM)	12.5 (≈ 91.1 µM)	12.5 (≈ 91.1 µM)
